Source: patent US20250296942A1, “Phosphonate-Based Coordination Complexes and Methods of Preparation and Use Thereof” (University of Puerto Rico, priority 2021, published 2025)
Like-named read-outs stand apart in the source and are kept apart here.

Assays:
[1] = Hydroxyapatite (HA) affinity/binding assay of 2,2′-BPBPA and nano-Ca@2,2′-BPBPA; details: 0.5 mg/mL, HA 20 mg, PBS, duplicate
[2] = test system: human breast cancer MDA-MB-231 cell line; details: previously reported; cited from earlier work
[3] = test system: human breast cancer MDA-MB-231 cell line; test: AlamarBlue cytotoxicity, RISE and nano-Ca@RISE, MDA-MB-231; format: cell-based; details: for viability at 35 µM / viability at 40 µM / viability at 45 µM / viability at 50 µM / IC50: Homo sapiens; for viability at 35 µM / viability at 40 µM / viability at 45 µM / viability at 50 µM: read-out: Relative cell viability (% RCL), MDA-MB-231
Description: Cell culture methods. The MDA-MB-231 cell line was incubated with DMEM, 1% Pen-Strep, and 10% FBS at 37° C. in 5% CO2. The hFOB 1.19 cell line was incubated with 1:1 DMEM:F-12, 0.3 mg/mL G418, and 10% FBS at 34° C. in 5% CO2. Cell passages were performed weekly at 80% of cell confluency, media was exchanged twice a week.
Cell treatments. Both cell lines were treated with RISE (control) and nano-Ca@RISE (experimental). […]. Both cell lines (MDA-MB-231 and hFOB 1.19) were seeded in 96 well plates at 2.5×10^5 cell/mL. The cells were incubated for 24 h at 37° C. (MDA-MB-231) and 34° C. (hFOB 1.19), respectively. After the initial incubation period, both cell lines were treated with 100 μL of the RISE solutions previously prepared, and incubation was performed for 24, 48, and 72 h at the respective incubation temperatures. For both cell lines, media (MDA-MB-231: DMEM, Pen-Strep) and (hFOB 1.19: DMEM, F-12, G418) were used with control groups. AlamarBlue® assay was utilized to determine cell proliferation, for this, 10% of AlamarBlue® solution in PBS was prepared. Finally, the media was removed from the 96 well plates, 100 μL of 10% AlamarBlue® solution was added, and the cells were incubated for 4 h at the same previously mentioned conditions. After the AlamarBlue® assay, the fluorescence (λexc=560 nm, λem=590 nm) was evaluated employing an Infinite M200 PRO Tecan Microplate Reader. […]. The nonlinear regression method using Graph Pad Prism 8 was applied to fit the dose-response curves (% cell live vs concentration) and determined the IC50 values for RISE.
[…]. Treatments at these concentrations were carried out at 24, 48, and 72 h for RISE and nano-Ca@RISE. The cell seeding and AlamarBlue® assay were completed as described above for the IC50 determination in both cell lines. […]. All experiments were performed in triplicates and the data was statistically treated using mean, standard deviation, and the coefficient of variation percentage (% CV).
Cell culture methods for the MDA-MB-231 cell line. This cell line was grown in Dulbecco's Modified Eagle's Medium (DMEM) supplemented with 10% fetal bovine serum (FBS) and 1% penicillin-streptomycin (Pen-Strep), incubated at 37° C. and 5% CO2. Cell passage and cell treatment were performed at 80% of cell confluency. The completed growth media was exchanged every two days.
Cell seeding. The MDA-MB-231 and hFOB 1.19 cell lines were seeded in 96 well plates at a density of 2.5×10^5 cells/mL, incubation was carried out for 24 h at 37° C. for MDA-MB-231 and 34° C. for osteoblast hFOB 1.19, in 5% CO2. The experiments were conducted in triplicates, three 96 well plates were made for each treatment period (24, 48, and 72 h).
Cell treatment. To determine the half-maximal inhibitory concentration (IC50), for both cell lines, two-fold serial dilutions of RISE (0-200 μM) were prepared. To assess the relative cell live (% RCL) were employed selected […] (50, 45, 40, and 35 μM) of RISE and nano-Ca@RISE for MDA-MB-231 and hFOB 1.19 cell lines. For this, after the seeding, 100 μL of RISE and nano-Ca@RISE were used to treat the cells. The control groups were treated with just media. Both cell lines were incubated for 24, 48, and 72 h after RISE and nano-Ca@RISE solutions were added.
AlamarBlue@assay. For both cell lines, after the 24, 48, and 72 h of treatment, the media was removed from the 96 well plates. Subsequently, 100 μL of 10% AlamarBlue® solution was added and incubation was carried out for 4 h. The fluorescence (λexc=570 nm, λem=590 nm) was measured employing an Infinite M200 PRO Tecan Microplate Reader. […]. The IC50 curves and the % RCL values were plotted using the Graph Pad Prism 8 program.

O=P(O)(O)c1ccc(-c2ccc(P(=O)(O)O)cn2)nc1 [2,2′-BPBPA, 2,2′-bipyridine-5,5′-bisphosphonic acid]
Amount (%) bound to HA, Mean ([1]; 5 d): 82% | Amount (%) bound to HA, Mean ([1]; 6 d): 88%

N#Cc1ccc(C(c2ccc(C#N)cc2)n2cncn2)cc1 [LET, letrozole]
IC50 [2]: > 200 µM

O=P(O)(O)C(O)(Cc1cccnc1)P(=O)(O)O [RISE, Monosodium risedronate hemipentahydrate]
viability at 35 µM ([3]; MDA-MB-231, 24 h, 35 μM, 24 h): 101 ± 2% | viability at 40 µM ([3]; MDA-MB-231, 24 h, 40 μM, 24 h): 100 ± 2% | viability at 45 µM ([3]; MDA-MB-231, 24 h, 24 h): 100 ± 2% | viability at 50 µM ([3]; MDA-MB-231, 24 h, 24 h): 99 ± 2% | viability at 35 µM ([3]; MDA-MB-231, 48 h, 35 μM, 48 h): 100 ± 2% | viability at 40 µM ([3]; MDA-MB-231, 48 h, 40 μM, 48 h): 100 ± 3% | viability at 45 µM ([3]; MDA-MB-231, 48 h, 48 h): 98 ± 2% | viability at 50 µM ([3]; MDA-MB-231, 48 h, 48 h): 97 ± 3% | viability at 35 µM ([3]; MDA-MB-231, 72 h, 35 μM, 72 h): ~100% | viability at 40 µM ([3]; MDA-MB-231, 72 h, 40 μM, 72 h): 94 ± 1% | viability at 45 µM ([3]; MDA-MB-231, 72 h, 72 h): 94 ± 2% | viability at 50 µM ([3]; MDA-MB-231, 72 h, 72 h): 93 ± 2% | IC50 ([3]; MDA-MB-231, 24 h): > 200 µM | IC50 ([3]; MDA-MB-231, 48 h): 175 ± 3 µM | IC50 ([3]; MDA-MB-231, 72 h): 98 ± 3 µM | Relative cell viability (% RCL) ([3]; MDA-MB-231, 35 μM, 72 h): 96 ± 2% | % RCL ([3]; MDA-MB-231, 40 μM, time not stated): ~100%
